# According to ChEMBL document CHEMBL5214978, “Identification of 1,4-Benzodiazepine-2,5-dione Derivatives as Potential Protein Synthesis Inhibitors with Highly Potent Anticancer Activity” (J Med Chem, 2022):
# What was measured:
# [1] = tested on: A549; experiment: Anticancer activity against human A549 cells assessed as cell growth inhibition measured after 48 hrs by SRB assay; format: functional
# [2] = tested on: SF-295; experiment: Anticancer activity against human SF-295 cells assessed as cell growth inhibition measured after 48 hrs by SRB assay; format: functional
# [3] = tested on: HCT-116; experiment: Anticancer activity against human HCT-116 cells assessed as cell growth inhibition measured after 48 hrs by SRB assay; format: functional
# [4] = tested on: 786-0; experiment: Anticancer activity against human 786-0 cells assessed as cell growth inhibition measured after 48 hrs by SRB assay; format: functional
# [5] = tested on: LOX IMVI; experiment: Anticancer activity against human LOX IMVI cells assessed as cell growth inhibition measured after 48 hrs by SRB assay; format: functional
# [6] = tested on: Panel NCI-60 (60 carcinoma cell lines); experiment: Anticancer activity against human Panel NCI-60 (60 carcinoma cell lines) line assessed as cell growth inhibition measured after 48 hrs by SRB assay; format: functional
# [7] = tested on: A498; experiment: Anticancer activity against human A498 cells assessed as cell growth inhibition; format: functional, cell-based
# [8] = tested on: Panel NCI-60 (60 carcinoma cell lines); experiment: Anticancer activity against human Panel NCI-60 (60 carcinoma cell lines) cells assessed as cell growth inhibition; format: functional
GI50 [1],GI50 [3],GI50 [4],SMILES,GI50 [2],GI50 [5],GI50 [6],GI50 [7],GI50 [8]
> 50000 nM,> 50000 nM,> 50000 nM,COC(=O)C[C@@H]1NC(=O)c2cc(Oc3ccccc3)c(NC(=O)c3cc(OC)c(OC)c(OC)c3)cc2NC1=O,> 50000 nM,> 50000 nM,> 50000 nM,–,–
74 nM,70 nM,87 nM,CCN(CC)C(=O)C[C@H]1C(=O)Nc2cc(NC(=O)c3c(Cl)c(OC)c(OC)c(OC)c3Br)c(Oc3cc(C)cc(C)c3)cc2C(=O)N1C,68 nM,39 nM,68 nM,–,–

# More lines, now with the values behind:
SMILES,GI50 [1],GI50 [3],GI50 [4],GI50 [2],GI50 [5],GI50 [6],GI50 [7],GI50 [8]
CCN(CC)C(=O)C[C@@H]1NC(=O)c2cc(Oc3cc(C)c(F)c(C)c3)c(NC(=O)c3cc(OC)c(OC)c(OC)c3Cl)cc2NC1=O,26 nM,17 nM,61 nM,27 nM,8 nM,16 nM,–,–
O=C1Nc2ccccc2C(=O)N2C=C(c3ccc(Br)cc3)C[C@@H]12,–,–,–,–,–,–,510 nM,7410 nM
COC(=O)C[C@@H]1NC(=O)c2cc(Oc3cc(C)cc(C)c3)c(NC(=O)c3cc(OC)c(OC)c(OC)c3)cc2NC1=O,70 nM,30 nM,70 nM,70 nM,20 nM,50 nM,–,–
COC(=O)C[C@@H]1NC(=O)c2cc(Oc3cc(C)cc(F)c3)c(NC(=O)c3cc(OC)c(OC)c(OC)c3)cc2NC1=O,140 nM,160 nM,160 nM,150 nM,190 nM,180 nM,–,–
